4 compounds from ChEMBL document CHEMBL1136819, “Synthesis, anticholinesterase activity and structure-activity relationships of m-Aminobenzoic acid derivatives” (Bioorg Med Chem Lett, 2003) can be followed below.

Data set [1] addresses T1, Acetylcholinesterase (Torpedo californica, UniProt P04058).
Description: Inhibitory activity against acetylcholinesterase (AChE) from Torpedo californica (Reversible type of inhibition)
The nature of data set [2]: Partition coefficient (logP). It is filed as physicochemical. To be noted: octanol/water.
The nature of data set [3]: Lethal dose was reported. It is filed as ADME.
Data set [4] addresses T1, Acetylcholinesterase. In words: Inhibitory activity against acetylcholinesterase (AChE) from Torpedo californica (Irreversible type of inhibition). Details: species or system Tetronarce californica.

As a reminder, the IC50 is the concentration at which inhibition is half-maximal. The low end stands for greater potency in that assay, the high end for weaker potency in that assay. For orientation: logP means a log measure of how a compound divides between an organic and an aqueous phase. Broadly, the LD50 is the dose expected to kill half of the subjects tested.

T1 sequence (P04058 whole entry): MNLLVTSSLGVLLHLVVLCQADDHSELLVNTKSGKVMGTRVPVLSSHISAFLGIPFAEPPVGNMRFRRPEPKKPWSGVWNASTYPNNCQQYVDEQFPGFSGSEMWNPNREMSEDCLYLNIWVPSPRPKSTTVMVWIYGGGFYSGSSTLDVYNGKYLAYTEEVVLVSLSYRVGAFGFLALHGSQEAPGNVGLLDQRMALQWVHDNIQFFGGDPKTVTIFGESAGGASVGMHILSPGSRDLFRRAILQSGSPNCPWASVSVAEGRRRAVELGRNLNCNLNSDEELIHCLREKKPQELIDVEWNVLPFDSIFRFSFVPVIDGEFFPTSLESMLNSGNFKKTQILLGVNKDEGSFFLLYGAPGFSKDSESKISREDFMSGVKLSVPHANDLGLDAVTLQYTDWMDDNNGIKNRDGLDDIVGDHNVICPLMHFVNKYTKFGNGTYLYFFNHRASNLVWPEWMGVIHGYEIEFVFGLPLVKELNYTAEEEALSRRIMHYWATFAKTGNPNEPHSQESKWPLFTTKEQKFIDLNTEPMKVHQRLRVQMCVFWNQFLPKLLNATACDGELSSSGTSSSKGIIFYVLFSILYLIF

In turn, `O=C(O)CCC(=O)Nc1cccc(C(=O)O)c1` yielded an IC50 against Acetylcholinesterase [1] of 0.0925 µM. For the same compound, in data set [2], the logP came to 1.41. In addition, the LD50 in data set [3] was more than 1000 mg/kg.
The like results for `O=C(O)c1cccc(N2C(=O)CCC2=O)c1` were, in that order, 0.0334 µM, 1.81 and more than 1000 mg/kg.
For the compound `O=C(O)/C=C\C(=O)Nc1cccc(C(=O)O)c1`, the midpoint of inhibition against Acetylcholinesterase [4], the IC50, lay at 0.357 µM. In addition, the logP in data set [2] is 1.09. Besides, the LD50 in data set [3] is more than 1000 mg/kg.
The compound `O=C(O)c1cccc(N2C(=O)C=CC2=O)c1` came in with an IC50 on Acetylcholinesterase [4] of 0.256 µM. Moreover, the logP in data set [2] is 1.48.
